In patent US20150004697A1, “METHOD FOR PRODUCING MULTIPOLAR CELL” (TOAGOSEI CO., LTD., priority 2011, published 2015):

What was measured:
Format in all cases: cell-based
[1] = tested on: human alveolar basal epithelial adenocarcinoma cells, A549; test: Multipolarity-inducing activity assay 3 (A549 cells synchronized in G2 phase (or M phase)); details: peptide 10 μM; for Multipolar level (%): 100 M-phase cells; for fluorescence microscope observation of centrosomes and multipolar spindles: DAPI, anti-tubulin and anti-centrin antibody
Procedure: Some of the sample peptides obtained in Example 1 were tested for multipolarity-inducing activity against target cultured tumor cells. Details of the assay are as described below. As the tumor cells tested, cells forming a […] (human alveolar basal epithelial adenocarcinoma cells, A549) were used. The cell line was cultured in the same manner as Example 2 described above. The resulting cultured tumor cells were synchronized in the G2 phase (or M phase) in the same manner as Example 3 described above. Similarly to Examples 2 and 3 described above (although the number of M-phase cells was 100), the presence of multipolarity was observed by immunofluorescence under fluorescence microscope. In addition, using centrin-2 as a marker for centrosomes (centrioles), the cells were tested for the presence of centrin-2 (i.e. the presence of centrosomes) by immunofluorescence with an anti-centrin-2 antibody (primary antibody) to identify the centrin-2 and a fluorescent dye-labeled secondary antibody to identify the primary antibody.

[2] = tested on: HeLa cell line (HeLa S3); test: Multipolarity-inducing activity assay 1 (cells synchronized in G1 phase by double thymidine block); details: peptide 10 μM, 6 hours of incubation; for Number of multipolar cells: HeLa S3 synchronized in G1 phase, count among the M-phase cells observed
Procedure: Some of the sample peptides obtained in Example 1 were tested for multipolarity-inducing activity against target cultured tumor cells. Details of the assay are as described below.
As the tumor cells tested, a HeLa cell line (HeLa S3) was used. The cell line was cultured beforehand in a DMEM medium (i.e. Dulbecco MEM medium (DMEM medium, a Gibco product) containing 10% fetal bovine serum (FBS, a Gibco product), 2 mM of L-glutamine, 50 unit/mL of penicillin, and 50 μg/mL of streptomycin), and seeded at about 3×10^4 cells per well in an 8-well slide glass. Thymidine was added to the culture medium to a final concentration of 2.5 mM. Incubation was carried out at 37° C. under 5% CO2 for 16 hours. The culture medium was exchanged to remove thymidine and incubation was carried out for 8 more hours. Subsequently, thymidine was added again to a final concentration of 2.5 mM and incubation was carried out for 16 hours.
By such double thymidine block, the cells being cultured were synchronized in the G1 phase of the cell cycle. After such synchronization treatment, the culture medium was exchanged to remove thymidine and incubation was carried out for 2 more hours. Subsequently, one of the sample peptides was added to each well. In this example, one of Samples 1, 4, 8, 9, 12 and 14 was added to a peptide concentration in the well of 10 μM.
After a sample peptide was added as described above, the 8-well slid glass was incubated under the aforementioned conditions for 6 hours.
After 6 hours of incubation, the presence of multipolarity was observed by immunofluorescence under fluorescence microscope. In particular, after 6 hours of incubation following the addition of a sample peptide, the cultured cells were subjected to nuclear staining with DAPI (4′,6-diamidino-2-phenylindole), and using α-tubulin as a marker for spindles, the cells were tested for the presence of tubulin (i.e., the presence of spindles) by immunofluorescence with an anti-tubulin antibody (primary antibody) to identify the tubulin and a fluorescent dye (ALEXA FLUOR(registered trademark) 555)-labeled secondary antibody to identify the primary antibody.

[3] = tested on: HeLa cell line (HeLa S3); test: Multipolarity-inducing activity assay 2 (cells synchronized in G2 phase (or M phase) by nocodazole); details: for Multipolar level (%): peptide 10 μM for 4 hours with nocodazole, then 2 hours without, % of M-phase cells; for Multipolar level (%) / Number of multipolar cells: HeLa S3 synchronized in G2 phase (M phase); for Number of multipolar cells / fluorescence microscope observation of centrosomes and multipolar spindles: peptide 10 μM; for Number of multipolar cells: count among 75 M-phase cells; for fluorescence microscope observation of centrosomes and multipolar spindles: HeLa synchronized in G2 phase (or M phase) by nocodazole, DAPI and anti-tubulin antibody
Procedure: The same sample peptides as those used in Example 2 above were used and tested for multipolarity-inducing activity against cultured tumor cells synchronized in the G2 phase (or M phase). Details of the assay are as described below.
As the tumor cells tested, a HeLa cell line (HeLa S3) was used. The cell line was cultured under the same conditions as Example 2 and seeded at about 3×10^4 cells per well in an 8-well slide glass. Thymidine was added to the culture medium to a final concentration of 2.5 mM. Incubation was carried out at 37° C. under 5% CO2 for 18 hours. The culture medium was exchanged to remove thymidine and incubation was carried out for 6 more hours. Subsequently, nocodazole was added to a final concentration of 0.1 μg/mL and incubation was carried out for 16 hours. By such addition of nocodazole, the cells being cultured were synchronized in the G2 phase (M phase) of the cell cycle.
After the 16 hours of incubation, without exchanging the culture medium (i.e. with nocodazole being contained), one of the sample peptides was added to each well to a peptide concentration in the well of 10 μM and incubation was carried out for 4 hours. Subsequently, the culture medium was exchanged and incubation was continued for 2 more hours without nocodazole or the sample peptide.
After the 2 hours of incubation, in the same manner as Example 2, the presence of multipolarity was observed by immunofluorescence under fluorescence microscope.

For CEISAKRTC [Sample 7], the “Multipolar level (%)” value [1] was 36%.
CGHRPYQYC [Sample 4] was tested, and the “Number of multipolar cells” value [2] was 6, the “Multipolar level (%)” value [3] was 62.7% and the “Number of multipolar cells” value [3] was 47. For the same sequence, the “Multipolar level (%)” value [1] was 36%.
CHILHAQAC [Sample 8] was tested, and the “Number of multipolar cells” value [2] was 11, the “Multipolar level (%)” value [3] was 68.0% and the “Number of multipolar cells” value [3] was 51. The “Multipolar level (%)” value [1] was 36%.
In the case of CLAPSPSKC [Sample 2], the “Multipolar level (%)” value [1] is reported as 38%.
For “CLAPSPSKCKKRFLRKNDRKKR (CLAPSPSKCKKRTLRKNDRKKR) [Sample 14]”, the “Number of multipolar cells” value [2] was 10, the “Multipolar level (%)” value [3] was 61.3% and the “Number of multipolar cells” value [3] was 46. The “Multipolar level (%)” value [1] was 38%.
In the case of CLTKSYTSC [Sample 12], the “Number of multipolar cells” value [2] is reported as 13, the “Multipolar level (%)” value [3] is reported as 64.0% and the “Number of multipolar cells” value [3] is reported as 48. The “fluorescence microscope observation of centrosomes and multipolar spindles” value (shortened to “fluorescence microscope observation”) [3] was 3 or more centrosomes formed in many cells.
With CPRPPSLEC [Sample 9] the “Number of multipolar cells” value [2] was 19, the “Multipolar level (%)” value [3] was 73.3% and the “Number of multipolar cells” value [3] was 55. The “fluorescence microscope observation” value [3] was 3 or more centrosomes formed in many cells and a cell with a particularly high degree of multipolarity.
CSSATGKSC [Sample 1] was tested, and the “Multipolar level (%)” value ([2]; HeLa S3 synchronized in G1 phase (double thymidine block), % multipolar cells relative to M-phase cells) was 8.3%, the “Number of multipolar cells” value [2] was 7 and the “Multipolar level (%)” value [3] was 62.7%. For the same sequence, the “Number of multipolar cells” value [3] was 47.
With CSYEKRPMC [Sample 11] the “fluorescence microscope observation” value [1] was 3 or more (typically 4 or more, e.g. 8 or more) centrosomes formed in many cells.
In the case of CTGHWASEC [Sample 10], the “Multipolar level (%)” value [1] is reported as 31%.
In the case of CTLNSHSNC [Sample 6], the “Multipolar level (%)” value [1] is reported as 30% and the “fluorescence microscope observation” value [1] is reported as 3 or more (typically 4 or more, e.g. 8 or more) centrosomes formed in many cells.
